Reference: US6552196B2, “Quinolone carboxylic acid derivatives” (Dong Wha Pharmaceutical Industrial Co., Ltd., priority 1997, dated 2003)
Converted amounts (≈) assume the structure as drawn.

What was measured:
Format in all cases: cell-based
[1] = system: Staphylococcus aureus 208E; assay: In vitro antibacterial activity against resistant strains (MIC); details: resistant strain Staphylococcus aureus 208E; 2-fold agar dilution; methicillin resistant strains 48 hours at 30° C.; read-out: minimum inhibitory concentration (MIC)
Description: (§1) 10^7 cfu/ml of bacteria were inoculated and cultured for 18 hours at 37° C. and then the antibacterial activities were measured. For the methicillin resistant strains the activities were measured after 48 hours of cultivation at 30° C. Hoechst Standard strains were used for the testings.

[2] = system: Staphylococcus aureus 303; assay: as above; details: resistant strain Staphylococcus aureus 303; 2-fold agar dilution; methicillin resistant strains 48 hours at 30° C.; read-out: minimum inhibitory concentration (MIC)
Description: as §1

[3] = system: Staphylococcus aureus 703E; assay: as above; details: resistant strain Staphylococcus aureus 703E; 2-fold agar dilution; methicillin resistant strains 48 hours at 30° C.; read-out: minimum inhibitory concentration (MIC)
Description: as §1

[4] = system: Staphylococcus epidermidis 291; assay: as above; details: resistant strain Staphylococcus epidermidis 291; 2-fold agar dilution; methicillin resistant strains 48 hours at 30° C.; read-out: minimum inhibitory concentration (MIC)
Description: as §1

[5] = system: Staphylococcus aureus 179; assay: as above; details: resistant strain Staphylococcus aureus 179; 2-fold agar dilution; methicillin resistant strains 48 hours at 30° C.; read-out: minimum inhibitory concentration (MIC)
Description: as §1

[6] = system: Staphylococcus aureus 256E; assay: as above; details: resistant strain Staphylococcus aureus 256E; 2-fold agar dilution; methicillin resistant strains 48 hours at 30° C.; read-out: minimum inhibitory concentration (MIC)
Description: as §1

[7] = system: Staphylococcus aureus 695E; assay: as above; details: resistant strain Staphylococcus aureus 695E; 2-fold agar dilution; methicillin resistant strains 48 hours at 30° C.; read-out: minimum inhibitory concentration (MIC)
Description: as §1

[8] = system: Staphylococcus aureus 121E; assay: as above; details: resistant strain Staphylococcus aureus 121E; 2-fold agar dilution; methicillin resistant strains 48 hours at 30° C.; read-out: minimum inhibitory concentration (MIC)
Description: as §1

[9] = system: Staphylococcus aureus 693E; assay: as above; details: resistant strain Staphylococcus aureus 693E; 2-fold agar dilution; methicillin resistant strains 48 hours at 30° C.; read-out: minimum inhibitory concentration (MIC)
Description: as §1

[10] = system: Staphylococcus aureus 697E; assay: as above; details: resistant strain Staphylococcus aureus 697E; 2-fold agar dilution; methicillin resistant strains 48 hours at 30° C.; read-out: minimum inhibitory concentration (MIC)
Description: as §1

[11] = system: Staphylococcus aureus 692E; assay: as above; details: resistant strain Staphylococcus aureus 692E; 2-fold agar dilution; methicillin resistant strains 48 hours at 30° C.; read-out: minimum inhibitory concentration (MIC)
Description: as §1

[12] = system: Staphylococcus epidermidis 178; assay: as above; details: resistant strain Staphylococcus epidermidis 178; 2-fold agar dilution; methicillin resistant strains 48 hours at 30° C.; read-out: minimum inhibitory concentration (MIC)
Description: as §1

[13] = system: Staphylococcus aureus 293; assay: as above; details: resistant strain Staphylococcus aureus 293; 2-fold agar dilution; methicillin resistant strains 48 hours at 30° C.; read-out: minimum inhibitory concentration (MIC)
Description: as §1

[14] = system: Staphylococcus aureus 8236; assay: as above; details: resistant strain Staphylococcus aureus 8236; 2-fold agar dilution; methicillin resistant strains 48 hours at 30° C.; read-out: minimum inhibitory concentration (MIC)
Description: as §1

[15] = system: Staphylococcus aureus 241; assay: as above; details: resistant strain Staphylococcus aureus 241; 2-fold agar dilution; methicillin resistant strains 48 hours at 30° C.; read-out: minimum inhibitory concentration (MIC)
Description: as §1

[16] = system: Staphylococcus aureus 690E; assay: as above; details: resistant strain Staphylococcus aureus 690E; 2-fold agar dilution; methicillin resistant strains 48 hours at 30° C.; read-out: minimum inhibitory concentration (MIC)
Description: as §1

[17] = system: Staphylococcus aureus 88E; assay: as above; details: resistant strain Staphylococcus aureus 88E; 2-fold agar dilution; methicillin resistant strains 48 hours at 30° C.; read-out: minimum inhibitory concentration (MIC)
Description: as §1

[18] = system: Staphylococcus aureus 701E; assay: as above; details: resistant strain Staphylococcus aureus 701E; 2-fold agar dilution; methicillin resistant strains 48 hours at 30° C.; read-out: minimum inhibitory concentration (MIC)
Description: as §1

[19] = system: Staphylococcus aureus 694E; assay: as above; details: resistant strain Staphylococcus aureus 694E; 2-fold agar dilution; methicillin resistant strains 48 hours at 30° C.; read-out: minimum inhibitory concentration (MIC)
Description: as §1

[20] = system: Pseudomonas aeruginosa 1592E; assay: In vitro antibacterial activity (MIC), agar dilution; details: 2-fold agar dilution, Muller-Hinton agar, 18 hours at 37° C., read-out: minimum inhibitory concentration (MIC)
Description: as §1

Salmonella typhimurium = assay: as above; details: Salmonella enterica, 2-fold agar dilution, Muller-Hinton agar, 18 hours at 37° C., read-out: minimum inhibitory concentration (MIC)
Description: as §1

[21] = system: Klebsiella aerogenes 1522E; assay: as above; details: 2-fold agar dilution, Muller-Hinton agar, 18 hours at 37° C., read-out: minimum inhibitory concentration (MIC)
Description: as §1

[22] = system: Pseudomonas aeruginosa 1771; assay: as above; details: 2-fold agar dilution, Muller-Hinton agar, 18 hours at 37° C., read-out: minimum inhibitory concentration (MIC)
Description: as §1

Esherichia coli 078 = assay: as above; details: 2-fold agar dilution, Muller-Hinton agar, 18 hours at 37° C., read-out: minimum inhibitory concentration (MIC)
Description: as §1

[23] = system: Pseudomonas aeruginosa 1771M; assay: as above; details: Pseudomonas aeruginosa, 1771M, 18 h, read-out: minimum inhibitory concentration (MIC)
Description: as §1

[24] = system: Staphylococcus aureus 503; assay: as above; details: 2-fold agar dilution, Muller-Hinton agar, 18 hours at 37° C., read-out: minimum inhibitory concentration (MIC)
Description: as §1

[25] = system: Streptococcus faecium MD 8b; assay: as above; details: Enterococcus faecium, MD8B, 2-fold agar dilution, Muller-Hinton agar, 18 hours at 37° C., read-out: minimum inhibitory concentration (MIC)
Description: as §1

[26] = system: Streptococcus pyogens 77A; assay: as above; details: 2-fold agar dilution, Muller-Hinton agar, 18 hours at 37° C., read-out: minimum inhibitory concentration (MIC)
Description: as §1

[27] = system: Staphylococcus aureus SG511; assay: as above; details: 2-fold agar dilution, Muller-Hinton agar, 18 hours at 37° C., read-out: minimum inhibitory concentration (MIC)
Description: as §1

Esherichia coli DC0 = assay: as above; details: 2-fold agar dilution, Muller-Hinton agar, 18 hours at 37° C., read-out: minimum inhibitory concentration (MIC)
Description: as §1

Esherichia coli TEM = assay: as above; details: 2-fold agar dilution, Muller-Hinton agar, 18 hours at 37° C., read-out: minimum inhibitory concentration (MIC)
Description: as §1

[28] = system: Pseudomonas aeruginosa 9027; assay: as above; details: 2-fold agar dilution, Muller-Hinton agar, 18 hours at 37° C., read-out: minimum inhibitory concentration (MIC)
Description: as §1

Klebsiella oxytoca 1082E = assay: as above; details: 2-fold agar dilution, Muller-Hinton agar, 18 hours at 37° C., read-out: minimum inhibitory concentration (MIC)
Description: as §1

Esherichia coli 1507E = assay: as above; details: 2-fold agar dilution, Muller-Hinton agar, 18 hours at 37° C., read-out: minimum inhibitory concentration (MIC)
Description: as §1

[29] = system: Staphylococcus aureus 285; assay: as above; details: 2-fold agar dilution, Muller-Hinton agar, 18 hours at 37° C., read-out: minimum inhibitory concentration (MIC)
Description: as §1

[30] = system: Streptococcus pyogens 308A; assay: as above; details: 2-fold agar dilution, Muller-Hinton agar, 18 hours at 37° C., read-out: minimum inhibitory concentration (MIC)
Description: as §1

Enterobacter clocae P99 = assay: as above; details: 2-fold agar dilution, Muller-Hinton agar, 18 hours at 37° C., read-out: minimum inhibitory concentration (MIC)
Description: as §1

[31] = system: Enterobacter clocae 1321E; assay: as above; details: 2-fold agar dilution, Muller-Hinton agar, 18 hours at 37° C., read-out: minimum inhibitory concentration (MIC)
Description: as §1

| SMILES | MIC [1] [µg/mL] | MIC [2] [µg/mL] | MIC [3] [µg/mL] | MIC [4] [µg/mL] | MIC [5] [µg/mL] | MIC [6] [µg/mL] | MIC [7] [µg/mL] | MIC [8] [µg/mL] | MIC [9] [µg/mL] | MIC [10] [µg/mL] | MIC [11] [µg/mL] | MIC [12] [µg/mL] | MIC [13] [µg/mL] | MIC [14] [µg/mL] | MIC [15] [µg/mL] | MIC [16] [µg/mL] | MIC [17] [µg/mL] | MIC [18] [µg/mL] | MIC [19] [µg/mL] | MIC [20] [µg/mL] | other results |
| --- | --- | --- | --- | --- | --- | --- | --- | --- | --- | --- | --- | --- | --- | --- | --- | --- | --- | --- | --- | --- | --- |
| CCON=C1CN(c2c(F)c(N)c3c(=O)c(C(=O)O)cn(C4CC4)c3c2F)CC12CNC2.CS(=O)(=O)O [Example 9, 1-Cyclopropyl-5-amino-6,8-difluoro-7-[8-(ethoxyimino)-2,6-diazaspiro[3,4]oct-6-yl]-4-oxo-1,4-dihydro-3-quinolinecarboxylic acid methanesulfonate] | 0.013 | 0.098 | 0.013 | 0.391 | 0.098 | 0.013 | 0.013 | 0.013 | 0.013 | 0.004 | 0.007 | 0.391 | 0.098 | 0.098 | 0.098 | 0.007 | 0.007 | 0.013 | 0.013 | 0.781 | MIC (Salmonella typhimurium): 0.007 µg/mL; MIC [21]: 0.049 µg/mL; MIC [22]: 0.781 µg/mL; MIC (Esherichia coli 078): 0.004 µg/mL; MIC [23]: 0.391 µg/mL; MIC [24]: < 0.002 µg/mL; MIC [25]: 0.049 µg/mL; MIC [26]: 0.004 µg/mL; MIC [27]: < 0.002 µg/mL; MIC (Esherichia coli DC0): 0.195 µg/mL; MIC (Esherichia coli TEM): 0.013 µg/mL; MIC [28]: 0.781 µg/mL; MIC (Klebsiella oxytoca 1082E): < 0.002 µg/mL; MIC (Esherichia coli 1507E): 0.013 µg/mL; MIC [29]: 0.007 µg/mL; MIC [30]: 0.025 µg/mL; MIC (Enterobacter clocae P99): 0.007 µg/mL; MIC [31]: 0.007 µg/mL |
| CON=C1CN(c2c(F)c(N)c3c(=O)c(C(=O)O)cn(C4CC4)c3c2F)CC12CN(C)C2 [Example 11, 1-Cyclopropyl-5-amino-6,8-difluoro-7-[8-(methoxyimino)-2-methyl-2,6-diazaspiro[3,4]oct-6-yl]-4-oxo-1,4-dihydro-3-quinolinecarboxylic acid] | 0.013 (≈ 0.0291 µM) | 0.195 (≈ 0.436 µM) | 0.013 (≈ 0.0291 µM) | 0.781 (≈ 1.75 µM) | 0.195 (≈ 0.436 µM) | 0.007 (≈ 0.0156 µM) | 0.013 (≈ 0.0291 µM) | 0.013 (≈ 0.0291 µM) | 0.013 (≈ 0.0291 µM) | 0.004 (≈ 0.00894 µM) | 0.007 (≈ 0.0156 µM) | 0.781 (≈ 1.75 µM) | 0.195 (≈ 0.436 µM) | 0.195 (≈ 0.436 µM) | 0.195 (≈ 0.436 µM) | 0.007 (≈ 0.0156 µM) | 0.007 (≈ 0.0156 µM) | 0.013 (≈ 0.0291 µM) | 0.013 (≈ 0.0291 µM) | 0.781 (≈ 1.75 µM) | MIC (Salmonella typhimurium): 0.007 µg/mL (≈ 0.0156 µM); MIC [21]: 0.049 µg/mL (≈ 0.11 µM); MIC [22]: 0.781 µg/mL (≈ 1.75 µM); MIC (Esherichia coli 078): < 0.002 µg/mL; MIC [23]: 0.391 µg/mL (≈ 0.874 µM); MIC [24]: 0.004 µg/mL (≈ 0.00894 µM); MIC [25]: 0.049 µg/mL (≈ 0.11 µM); MIC [26]: 0.004 µg/mL (≈ 0.00894 µM); MIC [27]: < 0.002 µg/mL; MIC (Esherichia coli DC0): 0.098 µg/mL (≈ 0.219 µM); MIC (Esherichia coli TEM): 0.013 µg/mL (≈ 0.0291 µM); MIC [28]: 0.781 µg/mL (≈ 1.75 µM); MIC (Klebsiella oxytoca 1082E): < 0.002 µg/mL; MIC (Esherichia coli 1507E): 0.013 µg/mL (≈ 0.0291 µM); MIC [29]: 0.007 µg/mL (≈ 0.0156 µM); MIC [30]: 0.013 µg/mL (≈ 0.0291 µM); MIC (Enterobacter clocae P99): 0.013 µg/mL (≈ 0.0291 µM); MIC [31]: 0.004 µg/mL (≈ 0.00894 µM) |
